How the values were obtained:
Assay in all cases: Bliss excess, mean over the matrix (fraction); higher = more synergy
[1] = system: CAPAN-1 (Pancreatic Carcinoma)
In short: (§1)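 Bliss excess equals the observed combination effect minus the expected value EA + EB − EA·EB, where EA and EB are the effects of each agent alone. Combination Emax is the second-highest inhibition within the matrix. Inhibition was scaled from CellTiter-Glo 2.0 luminescence, with 0 set by vehicle wells and 1 by blank wells, after 72 hours of two-drug dosing of cells plated in 1536-well plates.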

NCI-H28 (Mesothelioma) = system: NCI-H28 (Mesothelioma)
In short: as §1

[2] = system: 8305C (Thyroid Gland Carcinoma)
In short: as §1

[3] = system: Hs-633T (Other Solid Carcinomas)
In short: as §1

[4] = system: HDLM-2 (Hodgkin's Lymphoma)
In short: as §1

[5] = system: LU-139 (Small Cell Lung Carcinoma)
In short: as §1

NB14 (Neuroblastoma) = system: NB14 (Neuroblastoma)
In short: as §1

[6] = system: PCI-30 (Head and Neck Carcinoma)
In short: as §1

[7] = system: EN (Endometrial Carcinoma)
In short: as §1

[8] = system: NCI-H69 (Small Cell Lung Carcinoma)
In short: as §1

[9] = system: RT-112 (Bladder Carcinoma)
In short: as §1

[10] = system: HARA (Squamous Cell Lung Carcinoma)
In short: as §1

[11] = system: SUP-T1 (T-Lymphoblastic Leukemia)
In short: as §1

[12] = system: SK-OV-3 (Ovarian Carcinoma)
In short: as §1

[13] = system: OC-314 (Ovarian Carcinoma)
In short: as §1

[14] = system: RKO (Colorectal Carcinoma)
In short: as §1

[15] = system: SW1116 (Colorectal Carcinoma)
In short: as §1

NCI-H2461 (Mesothelioma) = system: NCI-H2461 (Mesothelioma)
In short: as §1

HMV-II (Melanoma) = system: HMV-II (Melanoma)
In short: as §1

[16] = system: HO-1-u-1 (Oral Cavity Carcinoma)
In short: as §1

Row | Compound | Bliss excess [1] | Bliss excess (NCI-H28 (Mesothelioma)) | Bliss excess [2] | Bliss excess [3] | Bliss excess [4] | Bliss excess [5] | Bliss excess (NB14 (Neuroblastoma)) | Bliss excess [6] | Bliss excess [7] | Bliss excess [8] | Bliss excess [9] | Bliss excess [10] | Bliss excess [11] | Bliss excess [12] | Bliss excess [13] | Bliss excess [14] | Bliss excess [15] | Bliss excess (NCI-H2461 (Mesothelioma)) | Bliss excess (HMV-II (Melanoma)) | Bliss excess [16]
1 | O=C(c1cc(Cc2n[nH]c(=O)c3ccccc23)ccc1F)N1CCN(C(=O)C2CC2)CC1 [Olaparib] + COc1nnc2ccc(N3CCC(c4ccc(OCCN5CCN(C)C(=O)[C@H]5C)cc4)CC3)nn12 [AZD5153] (first compound max 10 µM, 7x7, partner max 1 µM) | -0.0573 | -0.0529 | -0.0634 | 0.0223 | -0.0334 | -0.0194 | -0.004 | -0.0144 | -0.0427 | 0.0144 | -0.0332 | -0.0775 | -0.0512 | -0.0296 | -0.0341 | -0.0893 | -0.0745 | -0.118 | -0.046 | -0.0022
2 | O=C(c1cc(Cc2n[nH]c(=O)c3ccccc23)ccc1F)N1CCN(C(=O)C2CC2)CC1 [Olaparib] + CC1(C)CCC(CN2CCN(c3ccc(C(=O)NS(=O)(=O)c4ccc(NCC5CCOCC5)c([N+](=O)[O-])c4)c(Oc4cnc5[nH]ccc5c4)c3)CC2)=C(c2ccc(Cl)cc2)C1 [Venetoclax] (first compound max 10 µM, 7x7, partner max 1 µM) | -0.0564 | -0.0273 | -0.0213 | -0.0018 | 0.0921 | 0.0408 | 0.0052 | -0.0425 | -0.0025 | 0.158 | -0.0275 | -0.0206 | -0.0572 | -0.0472 | -0.0124 | -0.0151 | -0.0429 | -0.0373 | -0.0468 | -0.0275
3 | C[C@@H](Nc1cc(F)cc(F)c1)c1cc(C(=O)N(C)C)cc2c(=O)cc(N3CCOCC3)oc12 [AZD8186] + C1CN(CCC1(C(=O)N[C@@H](CCO)C2=CC=C(C=C2)Cl)N)C3=NC=NC4=C3C=CN4 [AZD5363] (first compound max 10 µM, 7x7, partner max 10 µM) | -0.0755 | -0.0165 | -0.0642 | -0.0205 | -0.0194 | -0.0299 | -0.0318 | -0.0443 | 0.0157 | -0.0566 | -0.0188 | -0.0301 | -0.0718 | -0.064 | 0.0624 | 0.0284 | -0.0429 | -0.0449 | -0.0515 | -0.073
4 | O=C(c1cc(Cc2n[nH]c(=O)c3ccccc23)ccc1F)N1CCN(C(=O)C2CC2)CC1 [Olaparib] + CN(CC[C@H](CSC1=CC=CC=C1)NC2=C(C=C(C=C2)S(=O)(=O)NC(=O)C3=CC=C(C=C3)N4CCC(CC4)[C@H](C5=CC=CC=C5C6=CC=C(C=C6)Cl)O)S(=O)(=O)C(F)(F)F)CCO [AZD4320] (first compound max 10 µM, 7x7, partner max 1 µM) | -0.0347 | -0.0353 | -0.0062 | 0.0017 | -0.0141 | 0.0154 | 0.0027 | -0.0405 | -0.0184 | 0.0294 | -0.0305 | -0.0379 | -0.0301 | -0.0672 | -0.0165 | -0.0252 | -0.0404 | -0.0534 | -0.0537 | 0.0123
5 | N#Cc1cnc(Nc2cc(NC[C@H]3CNCCO3)c(C(F)(F)F)cn2)cn1 [SRA737] + CCc1c2c(nc3ccc(O)cc13)-c1cc3c(c(=O)n1C2)COC(=O)[C@]3(O)CC [SN-38] (first compound max 10 µM, 7x7, partner max 0.3 µM) | -0.0974 | -0.104 | -0.0419 | -0.0402 | -0.0382 | -0.0305 | -0.0148 | -0.0079 | -0.0706 | 0.0781 | 0.138 | -0.0628 | -0.0989 | -0.0464 | -0.0056 | -0.0398 | 0.0312 | -0.0351 | -0.0523 | 0.106

— the supplement of paper PMC11061612
